ChEMBL document CHEMBL3039007, “Structure-based identification of OATP1B1/3 inhibitors” (Mol Pharmacol, 2013)

Columns and labels:
[1] = target: T1, Solute carrier organic anion transporter family member 1B1 (Homo sapiens, UniProt Q9Y6L6); conditions: chinese hamster, cho, 10 µM
T1 sequence (Q9Y6L6 whole entry): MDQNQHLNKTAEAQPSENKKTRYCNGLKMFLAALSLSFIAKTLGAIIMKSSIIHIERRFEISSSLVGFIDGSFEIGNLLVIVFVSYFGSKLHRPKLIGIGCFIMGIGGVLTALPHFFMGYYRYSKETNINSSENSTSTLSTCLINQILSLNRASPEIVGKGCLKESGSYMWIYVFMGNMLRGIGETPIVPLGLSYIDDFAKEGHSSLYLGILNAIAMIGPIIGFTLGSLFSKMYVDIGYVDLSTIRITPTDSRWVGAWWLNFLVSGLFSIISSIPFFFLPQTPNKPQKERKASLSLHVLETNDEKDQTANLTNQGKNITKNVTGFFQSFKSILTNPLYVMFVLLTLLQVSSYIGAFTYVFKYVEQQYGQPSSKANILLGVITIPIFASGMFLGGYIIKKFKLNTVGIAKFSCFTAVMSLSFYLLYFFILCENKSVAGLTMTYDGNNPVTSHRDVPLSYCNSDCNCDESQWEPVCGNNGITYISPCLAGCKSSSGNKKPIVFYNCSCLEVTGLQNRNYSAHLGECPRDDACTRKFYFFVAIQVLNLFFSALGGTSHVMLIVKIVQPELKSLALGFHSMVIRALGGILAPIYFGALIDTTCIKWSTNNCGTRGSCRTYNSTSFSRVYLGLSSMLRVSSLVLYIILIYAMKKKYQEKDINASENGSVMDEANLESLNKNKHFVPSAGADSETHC

[2] = target: T2, Solute carrier organic anion transporter family member 1B3 (Homo sapiens, UniProt Q9NPD5); conditions: chinese hamster, cho, 10 µM
T2 sequence (Q9NPD5 whole entry): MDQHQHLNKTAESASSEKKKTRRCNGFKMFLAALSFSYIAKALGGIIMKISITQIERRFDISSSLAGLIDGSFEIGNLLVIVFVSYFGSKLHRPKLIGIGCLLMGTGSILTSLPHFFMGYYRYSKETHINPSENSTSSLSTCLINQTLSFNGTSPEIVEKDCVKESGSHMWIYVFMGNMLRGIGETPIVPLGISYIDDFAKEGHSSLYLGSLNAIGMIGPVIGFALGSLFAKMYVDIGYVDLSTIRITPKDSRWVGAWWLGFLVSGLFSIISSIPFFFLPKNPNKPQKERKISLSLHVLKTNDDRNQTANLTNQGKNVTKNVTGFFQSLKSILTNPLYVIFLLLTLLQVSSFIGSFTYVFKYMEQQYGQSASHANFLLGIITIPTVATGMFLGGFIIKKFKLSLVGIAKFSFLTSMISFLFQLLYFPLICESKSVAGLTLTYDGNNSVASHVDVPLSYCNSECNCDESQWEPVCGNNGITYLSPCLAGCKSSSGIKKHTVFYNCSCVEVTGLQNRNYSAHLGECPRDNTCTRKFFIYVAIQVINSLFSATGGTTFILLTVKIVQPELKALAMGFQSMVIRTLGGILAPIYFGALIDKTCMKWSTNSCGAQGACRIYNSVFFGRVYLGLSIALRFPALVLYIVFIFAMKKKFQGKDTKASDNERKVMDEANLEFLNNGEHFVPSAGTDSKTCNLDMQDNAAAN

Row | Structure (SMILES) | residual activity [1] [%] | residual activity [2] [%]
1 | CC(=O)O[C@@H]1CC[C@@]2(C)[C@@H](CC[C@@H]3[C@@H]2CC[C@]2(C)C(=O)CC[C@@H]32)C1 [ANDROSTERONE ACETATE] | 76.88 | 100.8
2 | C/C=C/c1ccc(OC)cc1 [ANETHOLE] | 89.5 | 124.1
3 | COc1ccc([C@@H](C)C(=O)c2ccc(O)cc2O)cc1 [ANGOLENSIN (R)] | 114.1 | 126.8
4 | COc1ccc2c(=O)c(CC(=O)O)coc2c1 [ANHYDROBRAZILIC ACID] | 56.09 | 76.12
5 | COc1ccc(C2C(=O)c3ccccc3C2=O)cc1 [ANISINDIONE] | 74.63 | 75.63
6 | COc1ccc(C[C@H]2NC[C@H](O)[C@H]2OC(C)=O)cc1 [ANISOMYCIN] | 81.33 | 81.11
7 | O=C(O)c1c2ccccc2cc2ccccc12 [ANTHRACENE-9-CARBOXYLIC ACID] | 95.94 | 87.88
8 | O=C1c2c(O)cccc2Cc2cccc(O)c21 [ANTHRALIN] | 86.38 | 90.63
9 | O=C1c2ccccc2C(=O)c2ccccc21 [ANTHRAQUINONE] | 96.98 | 78.8
10 | COc1cc(O)cc(OC)c1OC [ANTIAROL] | 95.16 | 113
11 | Cc1cc(=O)n(-c2ccccc2)n1C [ANTIPYRINE] | 79.71 | 82.49
12 | O=C(O)C1CC([C@@H]2CCCCN2)CN2CCCCC12 (stereo partly specified) [APHYLLIC ACID] | 83.2 | 100.7
13 | CC(=O)Oc1ccc(-c2cc(=O)c3c(OC(C)=O)cc(OC(C)=O)cc3o2)cc1 [APIGENIN TRIACETATE] | 92.99 | 94.69
14 | O=c1cc(-c2ccc(O)cc2)oc2cc(O)cc(O)c12 [APIGENIN] | 84.2 | 134.2
15 | O=c1cc(-c2ccc(O)cc2)oc2cc(O[C@@H]3O[C@H](CO)[C@@H](O)[C@H](O)[C@H]3O)cc(O)c12 [APIGETRIN] | 204.4 | 134.6
16 | O=c1cc(-c2ccc(O)cc2)oc2cc(O[C@@H]3O[C@H](CO)[C@@H](O)[C@H](O)[C@H]3O[C@@H]3OC[C@](O)(CO)[C@H]3O)cc(O)c12 [APIIN] | 69.17 | 141.5
17 | C=CCc1cc(OC)c2c(c1OC)OCO2 [APIOL] | 213.1 | 107.2
18 | OC[C@H]1O[C@@H](Oc2ccc(O)cc2)[C@H](O)[C@@H](O)[C@@H]1O [ARBUTIN] | 103.7 | 113.4
19 | N=C(N)NCCCCNC(=N)N.O=S(=O)(O)O [ARCAINE SULFATE] | 78.37 | 96.72
20 | Br.COC(=O)C1=CCCN(C)C1 [ARECOLINE HYDROBROMIDE] | 112.6 | 103.7
21 | COc1cccc2c1cc([N+](=O)[O-])c1c(C(=O)O)cc3c(c12)OCO3 [ARISTOLOCHIC ACID] | 76.91 | 107.6
22 | CCCCCC(=O)Cc1cc(O)cc(O)c1C(=O)Oc1cc(CC(=O)CCCCC)c(C(=O)O)c(OC)c1 [ARTHONIOIC ACID] | 52.3 | 96.29
23 | c1ccc2c(Cc3c[nH]c4ccccc34)c[nH]c2c1 [ARUNDINE] | 101.6 | 110.1
24 | c1cc2c(cc1[C@H]1OC[C@H]3[C@@H]1CO[C@H]3c1ccc3c(c1)OCO3)OCO2 [ASARININ] | 107.7 | 116.8

Row | Structure (SMILES) | residual activity [1] [%] | residual activity [2] [%]
25 | O=C1O[C@H]([C@@H](O)CO)C(O)=C1O [ASCORBIC ACID] | 84.23 | 96.05
26 | CC1=C(/C=C/C(C)=C/C=C/C(C)=C/C=C/C=C(C)/C=C/C=C(C)/C=C/C2=C(C)C(=O)[C@@H](O)CC2(C)C)C(C)(C)C[C@H](O)C1=O [ASTAXANTHIN] | 95.25 | 87.19
27 | COc1ccc(CCN2CCC(Nc3nc4ccccc4n3Cc3ccc(F)cc3)CC2)cc1 [ASTEMIZOLE] | 127.5 | 97.68
28 | CC(C)NCC(O)COc1ccc(CC(N)=O)cc1 (stereo unspecified) [ATENOLOL] | 78.26 | 93.81
29 | O=C1c2ccccc2C(=O)c2c1ccc(O)c2O [ATHRAQUINONES A] | 84.81 | 93.11
30 | O=C1C(O)=C([C@H]2CC[C@H](c3ccc(Cl)cc3)CC2)C(=O)c2ccccc21 [ATOVAQUONE] | 89.04 | 81.94
31 | COC(=O)c1c(C)cc(OC(=O)c2c(C)cc(O)c(C=O)c2O)c(C)c1O [ATRANORIN] | 122.9 | 109.7
32 | CCNc1nc(Cl)nc(NC(C)C)n1 [ATRAZINE] | 133.8 | 96.21
33 | CC1=CC(=O)C2=C(C)C[C@H](O)[C@@H]3[C@H](OC(=O)[C@H]3C)[C@H]12 [AUSTRICINE] | 102.6 | 86.81
34 | COc1ccc(C(=O)CC(=O)c2ccc(C(C)(C)C)cc2)cc1 [AVOBENZONE] | 124 | 103
35 | C#CCCCCCCCCCCCC(O)CC(O)COC(C)=O (stereo unspecified) [AVOCADYNE ACETATE] | 144.6 | 109.9
36 | C#CCCCCCCCCCCCC(O)CC(O)CO (stereo unspecified) [AVOCADYNE] | 96.1 | 124.3
37 | C#CCCCCCCCCCCCC(=O)CC(O)COC(C)=O (stereo unspecified) [AVOCADYNONE ACETATE] | 124.8 | 100.5
38 | C=CCCCCCCCCCCCC(O)CC(O)COC(C)=O (stereo unspecified) [AVOCATIN A] | 125.1 | 99.6
39 | Nc1ncn([C@@H]2O[C@H](CO)[C@@H](O)[C@H]2O)c(=O)n1 [AZACITIDINE] | 108.4 | 96.87
40 | C/C=C(\C)C(=O)O[C@H]1C[C@@H](OC(C)=O)[C@@]2(C(=O)OC)CO[C@H]3[C@@H](O)[C@@](C)([C@]45O[C@@]4(C)[C@@H]4C[C@H]5O[C@@H]5OC=C[C@@]54O)[C@H]4[C@]1(CO[C@]4(O)C(=O)OC)[C@@H]32 [AZADIRACHTIN A] | 51.12 | 74.42
41 | O=C(CCCN1CCN(c2ccccn2)CC1)c1ccc(F)cc1 [AZAPERONE] | 88.32 | 108.2
42 | [N-]=[N+]=CC(=O)OC[C@H](N)C(=O)O [AZASERINE] | 100.4 | 107.6
43 | Cn1cnc([N+](=O)[O-])c1Sc1ncnc2nc[nH]c12 [AZATHIOPRINE] | 128.4 | 107.3
44 | O=C(O)CCCCCCCC(=O)O [AZELAIC ACID] | 100.4 | 107.2
45 | CN1CCCC(n2nc(Cc3ccc(Cl)cc3)c3ccccc3c2=O)CC1.Cl (stereo unspecified) [AZELASTINE HYDROCHLORIDE] | 43.45 | 134.9
46 | CC1(C)S[C@@H]2[C@H](NC(=O)[C@H](NC(=O)N3CCNC3=O)c3ccccc3)C(=O)N2[C@H]1C(=O)[O-].[Na+] [AZLOCILLIN SODIUM] | 96.91 | 85.12
47 | c1ccc(/N=N/c2ccccc2)cc1 [AZOBENZENE] | 216.3 | 112.1
48 | CCOC(=O)OC(C)OC(=O)[C@@H]1N2C(=O)[C@@H](NC(=O)[C@H](N)c3ccccc3)[C@H]2SC1(C)C.Cl (stereo partly specified) [BACAMPICILLIN HYDROCHLORIDE] | 46.45 | 80.61
